# No end group written: not given here.
# Key:
# HIV-1IIIB = assay: HIV-1 antiviral assay in CEM-SS cells (MTS readout of virus-induced cell killing); assay type: cell-based
# HCMV strain AD169 = assay: HCMV plaque formation assay in MRC-5 cells; details: for inhibition of HCMV plaque formation as compared to the virus control: 10 micrograms per ml, 7-10 days
# [1] = tested on: hepatitis B virus (HBV) ayw strain; assay: HBV assay in HepG2-2.2.15 cells (secreted HBV DNA by TaqMan PCR); assay type: cell-based; details: 10 micrograms per ml, six days, HBV DNA in supernatant
# [2] = tested on: Primary Human endothelial cells (HUVEC); assay: Endothelial cell migration assay; details: 10 micrograms per ml, 22 hours, combination peptide 1: peptide 2 0.95 mole: 1.05 mole
# Protocol: Primary Human endothelial cells (HUVEC) were seeded in insert chambers with 3 micrometer pore size of multi-transwell plate for 6 hours at 37° C. in Endothelial Cell Basal Medium (EBM) supplemented with 0.1% bovine serum albumin. Thereafter, designated concentration of testing peptides—10 micrograms per ml—was added in duplicate wells. The endothelia were allowed to migrate for 22 hours at 37° C., then, migrated cells were fixed and stained with Hoechst 33342 dye. Images of 3 fields per insert were taken and the number of migrated cells per field were quantified using the ImageProPlus software. Data were analyzed for the average number of the migrated cells and standard deviation of six data points for each treatment condition. […] Statistic p values were computed using the Student's t-test.
# HUVEC = assay: Endothelial tube formation assay; details: 10 micrograms per ml, 20 hours, combination peptide 1: peptide 2 0.95 mole: 1.05 mole
# Protocol: The endothelial tube formation assay is based on the ability of endothelial cells to form three-dimensional capillary-like tubular structures when cultured on a gel of basement membrane extract. […] Pre-labeled HUVEC with Calcein AM were seeded in a 96-well culture plate coated with extracellular metrix (Chemicon international Cat. ECM625) and treated with test peptides—10 micrograms per ml—in full growth medium. Positive control was vehicle only. The endothelial cells were allowed to form tubes foe 20 hours and were then examined under an inverted fluorescent microscope. Duplicate wells for each treatment were photographed and quantitatevily analyzed for an average tubule length using image analysis software ImageProPlus. Raw data were expressed as average tubule lenghs in pixels±standard deviation. Statistic p values were computed using the Student's t-test.
# [3] = tested on: spleen cells of Ovalbumin-immunized Balb/c mice; assay: Th1/Th2 cytokine profiling assay (Ovalbumin-restimulated spleen cells, CBA kit); details: 10 micrograms per ml; Ovalbumin restimulation, 72 hours
# Description: The Balb/c mice (originated in 1923, it is a popular strain and is used in many different research disciplines. Also classified as an inbred from the production of 20 or more successive brother-sister matings, the Balb/c mouse is albino and small in size) were immunized on Days 1, 15, and 29 with Ovalbumin (Ovalbumin is the main protein found in egg white, commonly used to stimulate an immunological reaction in test animals) in PBS (5 micrograms/injection). On day 50, spleens of the mice were harvested (3 weeks after last boost with Ovalbumin). […] Thereafter, additional Ovalbumin was added to the cells at 10 micrograms/ml for in vitro restimulation of the cells. 72 hours later, cell supernatants were harvested and assayed using the Becton Dickinson Mouse Th1/Th2 Cytokine CBA Kit.
Compound,antiviral activity of positive control compounds (HIV-1) (HIV-1IIIB),"antiviral activity of positive control compound (HCMV) (HCMV strain AD169; positive control, HCMV AD169)",inhibition of HBV replication as compared to the virus control infection [1],inhibition of HCMV plaque formation as compared to the virus control (HCMV strain AD169),inhibition of the migration of human endothelial cells [2],inhibition of the tube formation endothelial cells (HUVEC),IFNγ spleen cells; TH1 response (% of control) [3],IL-2 spleen cells (% of control) [3],IL-4 spleen cells; TH2 response (% of control) [3],IL-5 spleen cells; TH2 response (% of control) [3],TNF-a spleen cells; TH1 response (% of control) [3]
Cc1cn([C@H]2C[C@H](N=[N+]=[N-])[C@@H](CO)O2)c(=O)[nH]c1=O [AZT],expected levels of antiviral activity,–,–,–,–,–,–,–,–,–,–
"Nc1nc(O)c2ncn(COC(CO)CO)c2n1 [Ganciclovir, reference compound]",–,expected levels of antiviral activity,–,–,–,–,–,–,–,–,–
CC(C)(C)NC(=O)[C@@H]1CN(Cc2cccnc2)CCN1C[C@@H](O)C[C@@H](Cc1ccccc1)C(=O)N[C@H]1c2ccccc2C[C@H]1O [indinavir],expected levels of antiviral activity,–,–,–,–,–,–,–,–,–,–
Ala-Ala-Val-Ala-Leu-Leu-Pro-Ala-Val-Leu-Leu-Ala-Leu-Leu-Ala-Pro-Val-Gln-Arg-Lys-Arg-Gln-Lys-Leu-Met-Pro-OH (AAVALLPAVLLALLAPVQRKRQKLMP-OH) [Peptide 1],–,–,40.7%,did not inhibit,did not inhibit,did not inhibit,63.7 % of control,153.6 % of control,118.2 % of control,74.6 % of control,108.5 % of control
Arg-Val-Tyr-Ile-His-Pro-Phe-OH (RVYIHPF-OH) [Peptide 2],–,–,44.1%,did not inhibit,did not inhibit,3%,126.8 % of control,119.1 % of control,117.2 % of control,69.6 % of control,106.3 % of control
